From PMC6390583 (BMC rheumatology, 2018)

Tests used:
Prkcn = Prkcn (Homo sapiens, UniProt O94806); assay: trFRET binding kinome profiling
Experimental: (§1) JAK activity assays using isolated kinase domains in the presence of 0.1 mM ATP and trFRET kinome profiling were conducted as described previously (17).

Plk3 = Plk3 (Homo sapiens, UniProt Q9H4B4); assay: trFRET binding kinome profiling
Experimental: as §1

Zipk = Zipk (Homo sapiens, UniProt O43293); assay: trFRET binding kinome profiling
Experimental: as §1

EGFR = EGFR (Homo sapiens, UniProt P00533); assay: trFRET binding kinome profiling
Experimental: as §1

Syk = Syk (Homo sapiens, UniProt P43405); assay: trFRET binding kinome profiling
Experimental: as §1

Pim2 = Pim2 (Homo sapiens, UniProt Q9P1W9); assay: trFRET binding kinome profiling
Sequence of Pim2 (Q9P1W9 whole entry, species assumed): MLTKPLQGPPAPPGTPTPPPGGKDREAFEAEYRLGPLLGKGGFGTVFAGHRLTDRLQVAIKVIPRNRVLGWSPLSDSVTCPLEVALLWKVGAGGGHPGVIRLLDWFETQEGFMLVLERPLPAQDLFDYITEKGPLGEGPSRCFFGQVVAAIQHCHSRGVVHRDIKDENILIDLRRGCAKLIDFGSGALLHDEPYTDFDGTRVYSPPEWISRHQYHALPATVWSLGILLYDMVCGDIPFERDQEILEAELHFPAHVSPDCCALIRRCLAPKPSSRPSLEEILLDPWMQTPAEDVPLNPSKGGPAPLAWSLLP
Experimental: as §1

STK16 = STK16 (Homo sapiens, UniProt O75716); assay: trFRET binding kinome profiling
Sequence of STK16 (O75716 whole entry, species assumed): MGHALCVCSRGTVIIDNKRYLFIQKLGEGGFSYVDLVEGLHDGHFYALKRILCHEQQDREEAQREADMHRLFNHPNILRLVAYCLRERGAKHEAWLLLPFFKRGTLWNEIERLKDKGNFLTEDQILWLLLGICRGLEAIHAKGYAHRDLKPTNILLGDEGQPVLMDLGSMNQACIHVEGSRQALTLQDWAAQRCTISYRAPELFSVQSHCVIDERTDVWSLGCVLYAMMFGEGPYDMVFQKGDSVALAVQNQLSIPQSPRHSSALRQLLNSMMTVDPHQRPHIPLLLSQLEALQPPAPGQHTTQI
Experimental: as §1

STK33 = STK33 (Homo sapiens, UniProt Q9BYT3); assay: trFRET binding kinome profiling
Sequence of STK33 (Q9BYT3 whole entry, species assumed): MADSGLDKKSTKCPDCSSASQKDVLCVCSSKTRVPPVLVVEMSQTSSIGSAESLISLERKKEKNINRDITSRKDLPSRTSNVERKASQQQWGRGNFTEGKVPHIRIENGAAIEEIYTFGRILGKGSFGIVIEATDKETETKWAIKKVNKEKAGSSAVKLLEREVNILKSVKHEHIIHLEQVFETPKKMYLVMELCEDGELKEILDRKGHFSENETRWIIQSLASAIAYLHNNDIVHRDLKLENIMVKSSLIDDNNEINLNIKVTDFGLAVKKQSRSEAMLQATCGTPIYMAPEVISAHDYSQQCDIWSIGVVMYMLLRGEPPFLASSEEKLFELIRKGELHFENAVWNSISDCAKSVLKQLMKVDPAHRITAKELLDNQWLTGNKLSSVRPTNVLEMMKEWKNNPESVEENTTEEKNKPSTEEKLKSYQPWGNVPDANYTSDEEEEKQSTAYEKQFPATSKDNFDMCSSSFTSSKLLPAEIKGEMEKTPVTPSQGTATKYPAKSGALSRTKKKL
Experimental: as §1

FAK = FAK (Homo sapiens, UniProt Q05397); assay: trFRET binding kinome profiling
Sequence of FAK (Q05397 whole entry, species assumed): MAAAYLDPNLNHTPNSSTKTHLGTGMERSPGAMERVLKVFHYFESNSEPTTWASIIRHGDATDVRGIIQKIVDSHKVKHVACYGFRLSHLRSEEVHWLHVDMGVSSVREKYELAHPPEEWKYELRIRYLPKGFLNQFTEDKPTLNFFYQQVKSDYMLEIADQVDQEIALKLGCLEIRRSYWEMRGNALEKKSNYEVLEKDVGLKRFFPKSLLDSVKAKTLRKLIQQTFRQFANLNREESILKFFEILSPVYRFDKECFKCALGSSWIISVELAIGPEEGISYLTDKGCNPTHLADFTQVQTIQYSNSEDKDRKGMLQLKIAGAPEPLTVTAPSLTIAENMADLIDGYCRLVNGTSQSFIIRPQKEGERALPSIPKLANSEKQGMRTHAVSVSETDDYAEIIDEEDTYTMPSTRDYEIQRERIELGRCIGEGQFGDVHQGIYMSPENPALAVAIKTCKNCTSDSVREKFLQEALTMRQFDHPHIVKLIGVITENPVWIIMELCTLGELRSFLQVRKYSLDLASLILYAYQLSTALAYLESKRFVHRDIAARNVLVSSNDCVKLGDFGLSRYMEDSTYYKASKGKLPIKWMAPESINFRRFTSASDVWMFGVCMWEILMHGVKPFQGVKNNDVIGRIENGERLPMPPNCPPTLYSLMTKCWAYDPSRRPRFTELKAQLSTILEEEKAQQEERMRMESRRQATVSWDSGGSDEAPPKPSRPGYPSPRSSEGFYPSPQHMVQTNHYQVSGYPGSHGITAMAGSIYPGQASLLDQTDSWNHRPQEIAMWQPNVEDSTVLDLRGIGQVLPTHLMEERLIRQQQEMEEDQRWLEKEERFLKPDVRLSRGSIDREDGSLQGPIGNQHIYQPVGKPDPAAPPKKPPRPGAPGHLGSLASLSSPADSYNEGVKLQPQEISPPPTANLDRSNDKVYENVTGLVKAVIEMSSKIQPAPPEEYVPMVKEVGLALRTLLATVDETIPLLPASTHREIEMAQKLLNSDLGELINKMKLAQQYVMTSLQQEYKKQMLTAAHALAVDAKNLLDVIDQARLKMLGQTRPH
Experimental: as §1

JNK2 = JNK2 (Homo sapiens, UniProt P45984); assay: trFRET binding kinome profiling
Sequence of JNK2 (P45984 whole entry, species assumed): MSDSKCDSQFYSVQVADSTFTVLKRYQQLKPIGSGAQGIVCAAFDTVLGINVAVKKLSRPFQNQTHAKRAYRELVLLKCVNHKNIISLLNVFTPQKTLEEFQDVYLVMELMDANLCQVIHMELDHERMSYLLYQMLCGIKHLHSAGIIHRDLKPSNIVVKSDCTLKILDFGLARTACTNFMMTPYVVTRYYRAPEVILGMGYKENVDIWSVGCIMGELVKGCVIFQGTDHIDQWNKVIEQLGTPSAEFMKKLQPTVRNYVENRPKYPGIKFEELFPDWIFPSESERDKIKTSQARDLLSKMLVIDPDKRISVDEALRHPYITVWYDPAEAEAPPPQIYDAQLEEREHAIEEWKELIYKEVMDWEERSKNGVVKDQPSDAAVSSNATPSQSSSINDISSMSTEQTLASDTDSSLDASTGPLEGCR
Experimental: as §1

MAP2K3 = MAP2K3 (Homo sapiens, UniProt P46734); assay: trFRET binding kinome profiling
Experimental: as §1

CLK2 = CLK2 (Homo sapiens, UniProt P49760); assay: trFRET binding kinome profiling
Sequence of CLK2 (P49760 whole entry, species assumed): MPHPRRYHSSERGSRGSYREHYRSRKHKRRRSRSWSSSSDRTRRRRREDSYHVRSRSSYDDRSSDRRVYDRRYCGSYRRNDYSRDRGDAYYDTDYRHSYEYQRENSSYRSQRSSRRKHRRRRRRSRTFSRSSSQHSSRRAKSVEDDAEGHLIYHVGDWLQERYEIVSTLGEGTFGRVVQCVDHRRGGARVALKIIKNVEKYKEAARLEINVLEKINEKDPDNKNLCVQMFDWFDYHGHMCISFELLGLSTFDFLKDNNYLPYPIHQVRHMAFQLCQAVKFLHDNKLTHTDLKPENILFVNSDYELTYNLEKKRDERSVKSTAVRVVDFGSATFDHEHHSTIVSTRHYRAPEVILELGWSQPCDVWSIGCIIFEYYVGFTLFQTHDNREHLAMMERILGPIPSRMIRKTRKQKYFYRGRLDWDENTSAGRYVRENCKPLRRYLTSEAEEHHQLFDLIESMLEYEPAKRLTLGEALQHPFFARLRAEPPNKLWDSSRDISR
Experimental: as §1

cMET = cMET (Homo sapiens, UniProt P08581); assay: trFRET binding kinome profiling
Experimental: as §1

PKCzeta = PKCzeta (Homo sapiens, UniProt Q05513); assay: trFRET binding kinome profiling
Experimental: as §1

TrkA = TrkA (Homo sapiens, UniProt P04629); assay: trFRET binding kinome profiling
Experimental: as §1

AMPK = assay: trFRET binding kinome profiling
Experimental: as §1

CAMK2A = CAMK2A (Homo sapiens, UniProt Q9UQM7); assay: trFRET binding kinome profiling
Sequence of CAMK2A (Q9UQM7 whole entry, species assumed): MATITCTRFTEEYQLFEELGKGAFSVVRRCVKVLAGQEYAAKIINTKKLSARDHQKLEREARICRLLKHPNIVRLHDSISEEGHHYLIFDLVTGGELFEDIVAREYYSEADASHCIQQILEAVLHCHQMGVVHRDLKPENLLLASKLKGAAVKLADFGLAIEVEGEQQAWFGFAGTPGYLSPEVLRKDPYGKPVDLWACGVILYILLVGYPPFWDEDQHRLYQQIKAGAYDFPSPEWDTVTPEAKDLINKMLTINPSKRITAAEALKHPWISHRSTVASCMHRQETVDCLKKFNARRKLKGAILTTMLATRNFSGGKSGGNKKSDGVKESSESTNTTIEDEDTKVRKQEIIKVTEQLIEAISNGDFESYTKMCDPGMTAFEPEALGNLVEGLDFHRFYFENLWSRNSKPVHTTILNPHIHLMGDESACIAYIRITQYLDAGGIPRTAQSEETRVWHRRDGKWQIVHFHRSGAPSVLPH
Experimental: as §1

GRK5 = GRK5 (Homo sapiens, UniProt P34947); assay: trFRET binding kinome profiling
Experimental: as §1

TBK1 = TBK1 (Homo sapiens, UniProt Q9UHD2); assay: trFRET binding kinome profiling
Experimental: as §1

JNK1 = JNK1 (Homo sapiens, UniProt P45983); assay: trFRET binding kinome profiling
Sequence of JNK1 (P45983 whole entry, species assumed): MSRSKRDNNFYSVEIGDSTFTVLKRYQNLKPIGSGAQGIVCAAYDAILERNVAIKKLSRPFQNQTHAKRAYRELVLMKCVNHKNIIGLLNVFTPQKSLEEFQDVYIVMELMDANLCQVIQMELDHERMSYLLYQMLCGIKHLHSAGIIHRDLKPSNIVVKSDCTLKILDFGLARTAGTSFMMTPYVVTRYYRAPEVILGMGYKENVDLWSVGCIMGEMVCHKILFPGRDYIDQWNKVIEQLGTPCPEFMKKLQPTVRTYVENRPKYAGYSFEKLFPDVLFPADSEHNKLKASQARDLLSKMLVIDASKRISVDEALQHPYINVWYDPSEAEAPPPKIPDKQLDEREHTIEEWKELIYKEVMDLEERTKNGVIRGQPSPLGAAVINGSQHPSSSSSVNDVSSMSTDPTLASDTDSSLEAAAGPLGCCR
Experimental: as §1

CDK2 = CDK2 (Homo sapiens, UniProt P24941); assay: trFRET binding kinome profiling
Experimental: as §1

SGK1 = SGK1 (Homo sapiens, UniProt O00141); assay: trFRET binding kinome profiling
Experimental: as §1

PKG1A = PKG1A (Homo sapiens, UniProt Q13976); assay: trFRET binding kinome profiling
Sequence of PKG1A (Q13976 whole entry): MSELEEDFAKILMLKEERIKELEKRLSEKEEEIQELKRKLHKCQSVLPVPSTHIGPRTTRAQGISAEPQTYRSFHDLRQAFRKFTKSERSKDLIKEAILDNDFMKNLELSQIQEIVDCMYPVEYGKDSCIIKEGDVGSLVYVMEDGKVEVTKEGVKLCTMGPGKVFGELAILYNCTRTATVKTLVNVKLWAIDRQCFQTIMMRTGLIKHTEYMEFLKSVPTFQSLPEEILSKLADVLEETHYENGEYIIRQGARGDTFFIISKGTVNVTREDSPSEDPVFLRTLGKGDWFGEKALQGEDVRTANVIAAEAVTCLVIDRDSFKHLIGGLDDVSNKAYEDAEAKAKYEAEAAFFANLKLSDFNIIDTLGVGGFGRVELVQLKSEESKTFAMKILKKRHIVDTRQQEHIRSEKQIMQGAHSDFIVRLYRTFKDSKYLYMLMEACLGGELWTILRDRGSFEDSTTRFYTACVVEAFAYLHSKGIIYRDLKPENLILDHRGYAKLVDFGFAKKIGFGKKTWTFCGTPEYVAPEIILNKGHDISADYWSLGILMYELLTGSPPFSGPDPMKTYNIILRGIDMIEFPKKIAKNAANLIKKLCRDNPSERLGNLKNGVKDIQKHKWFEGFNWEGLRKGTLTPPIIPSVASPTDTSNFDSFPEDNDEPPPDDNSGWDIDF
Experimental: as §1

p38 alpha = p38 alpha (Homo sapiens, UniProt Q16539); assay: trFRET binding kinome profiling
Experimental: as §1

JAK1 = JAK1 (Homo sapiens, UniProt P23458); assay: HTRF activity assay, recombinant JAK1 catalytic domain; conditions: JAK1 IC50 at varying ATP (0.01-1 mM), Cheng-Prusoff; data not shown
Sequence of JAK1 (P23458 845-1142): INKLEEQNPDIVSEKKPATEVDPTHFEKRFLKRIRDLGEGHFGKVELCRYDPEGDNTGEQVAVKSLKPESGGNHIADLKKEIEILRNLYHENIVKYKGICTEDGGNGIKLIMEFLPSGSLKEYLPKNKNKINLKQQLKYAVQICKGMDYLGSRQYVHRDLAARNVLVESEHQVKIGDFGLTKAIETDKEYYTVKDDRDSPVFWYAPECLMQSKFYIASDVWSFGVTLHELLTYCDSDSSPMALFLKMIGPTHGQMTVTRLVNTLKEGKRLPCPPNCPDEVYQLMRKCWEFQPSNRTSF

SMILES: CC[C@@H]1CN(C(=O)NCC(F)(F)F)C[C@@H]1c1cnc2cnc3[nH]ccc3n12 [upadacitinib, (3S,4R)-3-ethyl-4-(3H-imidazo [1,2-a]pyrrolo [2,3-e]pyrazin-8-yl)-N-(2,2,2-trifluoroethyl) pyrrolidine-1-carboxamide]
- IC50 (Prkcn): > 10 µM
- IC50 (Plk3): > 10 µM
- IC50 (Zipk): > 10 µM
- IC50 (EGFR): > 10 µM
- IC50 (Syk): > 10 µM
- IC50 (Pim2): > 10 µM
- IC50 (STK16): 9.7 µM
- IC50 (STK33): > 10 µM
- IC50 (FAK): > 10 µM
- IC50 (JNK2): > 10 µM
- IC50 (MAP2K3): > 10 µM
- IC50 (CLK2): > 10 µM
- IC50 (cMET): > 10 µM
- IC50 (PKCzeta): > 10 µM
- IC50 (TrkA): > 10 µM
- IC50 (AMPK): > 4.5 µM
- IC50 (CAMK2A): > 10 µM
- IC50 (GRK5): > 7.9 µM
- IC50 (TBK1): > 10 µM
- IC50 (JNK1): > 10 µM
- IC50 (CDK2): > 10 µM
- IC50 (SGK1): > 10 µM
- IC50 (PKG1A): > 10 µM
- IC50 (p38 alpha): > 10 µM
- Mechanism of JAK1 inhibition (JAK1): ATP competitive inhibitor
